From paper PMC7115580 (European Journal of Medicinal Chemistry, 2017) come the findings set out here.

In the experiment the target is S31N mutant M2 channel (Influenza A virus, UniProt P0DOF5, S31N). Format: biochemical.
Regarding `CC1(C)N=C(N)N=C(N)N1c1ccc(Cl)cc1` [Compound 1, cycloguanil, reference compound], the “Inhibition of S31N mutant M2 channel” value is “neither of the three compounds significantly inhibited”.
In the case of `CC1(C)N=C(N)N=C(N)N1c1cccc(C(F)(F)F)c1` [Compound 14] it was “neither of the three compounds significantly inhibited”; in that of `CC1(C)N=C(N)N=C(N)N1c1ccc(Cl)c(Cl)c1` [Compound 16], “neither of the three compounds significantly inhibited”.
